Publication PMC2709563 (Nucleic Acids Research, 2009)

Biological target: Klenow fragment of DNA polymerase I (Escherichia coli, UniProt P00582)
Assay: competitive fluorescence anisotropy displacement of dtC^OTP
Format: binding

Chain of Klenow fragment of DNA polymerase I (P00582 324-928 limits assumed): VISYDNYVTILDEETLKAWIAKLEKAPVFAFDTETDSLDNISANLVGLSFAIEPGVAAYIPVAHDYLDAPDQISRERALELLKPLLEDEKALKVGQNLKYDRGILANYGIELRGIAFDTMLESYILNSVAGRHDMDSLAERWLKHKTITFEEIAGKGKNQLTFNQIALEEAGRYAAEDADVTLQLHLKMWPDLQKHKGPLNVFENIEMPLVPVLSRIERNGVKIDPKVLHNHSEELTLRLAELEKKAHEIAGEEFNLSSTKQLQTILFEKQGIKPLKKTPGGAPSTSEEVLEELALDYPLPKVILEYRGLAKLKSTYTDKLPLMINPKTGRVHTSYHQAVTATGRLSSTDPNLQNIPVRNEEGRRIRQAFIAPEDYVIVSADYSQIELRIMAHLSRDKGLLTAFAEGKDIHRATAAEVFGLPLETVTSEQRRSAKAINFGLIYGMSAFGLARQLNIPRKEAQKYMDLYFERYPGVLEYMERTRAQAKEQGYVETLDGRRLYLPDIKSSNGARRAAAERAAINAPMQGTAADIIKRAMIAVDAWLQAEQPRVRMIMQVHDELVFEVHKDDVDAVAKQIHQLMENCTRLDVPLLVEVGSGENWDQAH

- IC50: 3.4 µM
SMILES: Nc1ccn([C@H]2C[C@H](O)[C@@H](COP(=O)(O)OP(=O)(O)OP(=O)(O)O)O2)c(=O)n1 [dCTP]
